{"source": "patent US6906035B2", "about": "“Antimicrobial cationic peptides” (priority 1995, dated 2005)", "key": {"[1]": {"tested_on": "LPS-induced TNF in RAW 264.7 macrophage cells", "experiment": "Inhibition of LPS-induced TNF in RAW 264.7 macrophages (L929 cytotoxic assay)", "type": "cell-based, mouse", "details": "for depression of TNF induction by aspirated medium containing peptide: fresh RAW cells", "protocol": "RAW 264.7 macrophage cells were grown by seeding 10^6 cells into a 162 cm^2 cell culture flask and incubated at 37° C., 5% CO2 for 1 week. RAW cell media [(Dulbecco's Modified Eagle Medium with Hepes buffer 450 ml; 2.4 mML-glutamine 3 ml (400 mM); Pen/Strep 3 ml (10^4 U/ml of Pen, 1 mg/ml strep); and 10% heat inactivated fetal bovine serum (FBS) 50 ml)] was then completely removed from flasks. 10 mls of cell dissociation solution (Sigma) was added to each flask and inc; bated at 37° C. for 10 minutes. Cells were removed from flasks, diluted in RAW cell media and centrifuged for 6 minutes. The cell pellet was resuspended in 5 ml of media/flask used, 100 μl cell suspension was removed and added to 400 μl of trypan blue and cells were counted using a hemocytometer. The cell suspension was diluted to 1×10^6 cells/ml and 1 ml of suspension was added per well of a 24 well plate. The 24 well plates were incubated at 37° C., 5% CO2 overnight for use in the assay.\nAfter an overnight incubation, the media was aspirated from all the wells. 100 μl of Lipopolysaccharide (LPS) was added at 100 ng/100 μl. CEME, CEMA or MBI 29 was added at the desired concentration/100 μl to specified wells. […] The plates were then incubated for six hours at 37° C., 5% CO2. The supernatant was then removed from the wells and stored overnight at 4° C. For those wells in which whole bacteria were added directly to the wells, the supernatant was centrifuged in 0.2 μm filter eppendorf tubes for 5 minutes.\nThe supernatants were then used in cell cytotoxic L929 assay. The samples were transferred to 96 well plates. 50 μl of TNF media was added to all the wells in all the plates except to those wells in the first row. 10 μl of murine TNF standard (20 ng/ml) and 90 μl of TNF media was added in duplicate to the plate and diluted 1:2 down the plate to the second to last row. Test samples (75 μl), comprising the supernatants from the RAW cell assays, were added to separate rows in duplicate and diluted 1:3 to the second to last rows.\nTNF-sensitive L929 mouse fibroblast cells were grown by seeding 10^6 cells into a 162 cm^2 cell culture flask and left to grow for 1 week. L929 cells were removed from the flask with 10 mls of trypsin-EDTA/flask and incubated 3-5 minutes. Cell suspension was diluted and centrifuged for 6 minutes. The pellet was resuspended in 5 mls of fresh L929 media/flask and counted (same as RAW cells). Cell suspension was diluted to 10^6 cells/ml. 100 μl was used to inoculate each well of the 96 well plates with the supernatants. (L929 Growth Media was the same as RAW cell media except instead of FBS, 50 mls of 10% heat inactivated horse serum was utilized; TNF Assay Media was the same as RAW cell media except 4 μg/ml Actinomycin D was added.)\nThe plates were incubated at 37° C. at 5% CO2 for 2 days. The media was then aspirated and replaced with 100 μl of the dye MTT (0.5 mg/ml) in modified Eagle Medium without phenol red. The plates were then incubated at 37° C. at 5% CO2 for 3 hours. The dye was then removed and replaced with 100 μl of absolute ethanol. […]\nThe plates were read at 570 nm in a ELISA plate reader with 690 nm reference filter. […]\nTNF levels were measured six hours after the addition of E. coli 0111:B4 or E. coli Bort LPS (FIGS. 5a, 5b, 5c and FIGS. 6a and 6c as labeled). […]\nIn order to determine how rapidly the cationic peptides reduced LPS-induced TNF production, E. coli 0111:B4 was added at time 0 to RAW macrophages. […] Levels of TNF were measured after 6 hours. […]"}, "RAW cells": {"tested_on": "RAW cells", "experiment": "RAW cell viability by Trypan blue exclusion", "type": "cell-based", "details": "up to 50 μg peptide"}, "P. aeruginosa [2]": {"tested_on": "P. aeruginosa", "experiment": "Effect of formulation on bactericidal activity (killing, survivors over time)", "type": "cell-based", "experimental": "(§1) Effect of formulation on bactericidal activity and MIC was determined using the test solutions listed below."}, "S. typhimurium": {"tested_on": "S. typhimurium", "details": "S. typhimurium (C610)", "experimental": "as §1\n(§2) The media used in this experiment was Cation Adjusted Muller Hinton (CAMHB), and CAMHB +8 mM citrate."}, "E. facaelis": {"tested_on": "E. facaelis", "details": "E. facaelis (C625)", "experimental": "as §1, §2"}, "P. aeruginosa [3]": {"tested_on": "P. aeruginosa", "details": "P. aeruginosa (H103)", "experimental": "as §1, §2"}, "[4]": {"details": "mice", "experimental": "Immediately afterwards LPS (10 or 20 μg) in 100 μl is injected. The mice are observed at 24 and 48 hours after injections and survivors noted."}}, "note": "Like-named read-outs stand apart in the source and are kept apart here. Ends that are not written are not given here."}
{"molecule": "CC[C@H](C)[C@H](NC(=O)[C@H](CC(C)C)NC(=O)[C@H](C)NC(=O)[C@@H]1CCCN1C(=O)[C@H](CC(C)C)NC(=O)CNC(=O)[C@@H](NC(=O)[C@@H](NC(=O)[C@H](CC(C)C)NC(=O)[C@@H](NC(=O)[C@H](CCCCN)NC(=O)[C@H](CCCCN)NC(=O)[C@@H](NC(=O)[C@H](C)NC(=O)[C@@H](NC(=O)[C@@H](NC(=O)[C@H](CC(C)C)NC(=O)[C@H](CCCCN)NC(=O)[C@H](CCCCN)NC(=O)[C@@H](NC(=O)[C@H](Cc1ccccc1)NC(=O)[C@H](CO)NC(=O)[C@H](CCCCN)NC(=O)[C@H](Cc1c[nH]c2ccccc12)NC(=O)[C@@H](N)CCCCN)[C@@H](C)CC)[C@@H](C)O)[C@@H](C)O)C(C)C)C(C)C)[C@@H](C)O)[C@@H](C)O)C(=O)N[C@@H](CO)C(=O)O", "note": "[MBI 29]", "values": [{"measurement": "TNF induction in RAW cells preincubated with peptide and washed", "setting": "[1]; 20 μg peptide 60 minutes, washed 3 times, then 10 ng or 100 ng LPS", "result": "14,000-20,000 Units of TNF per ml"}, {"measurement": "inhibition of TNF induction by LPS", "setting": "[1]; E. coli 0111:B4 at time 0, peptide added at 0, 30 and 60 minutes, TNF after 6 hours", "result": "inhibited TNF induction by LPS in a similar manner to polymyxin B"}, {"measurement": "reduction of LPS-induced TNF when added after LPS", "setting": "[1]; added 60 minutes after the addition of LPS", "result": "effective"}, {"measurement": "depression of TNF induction by aspirated medium containing peptide", "setting": "[1]; 10 ng E. coli LPS", "result": 98.5, "unit": "%"}, {"measurement": "depression of TNF induction by aspirated medium containing peptide", "setting": "[1]; 100 ng E. coli LPS", "result": 75, "unit": "%"}, {"measurement": "RAW cell viability", "setting": "RAW cells", "result": "no apparent decrease"}]}
{"molecule": "KWKSFIKKLTSAAKKVVTTAKPLISS [MBI 26]", "values": [{"measurement": "Survivors at Time (min.)", "setting": "P. aeruginosa [2]; Citrate (0.129 M) +Ascorbic Acid (100 mM), MBI 26 10 MG/ML, 0 min", "result": "1.3 × 10^7"}, {"measurement": "Survivors at Time (min.)", "setting": "P. aeruginosa [2]; Citrate (0.129 M) +Ascorbic Acid (100 mM), MBI 26 10 MG/ML, 15 min", "result": 0}, {"measurement": "Survivors at Time (min.)", "setting": "P. aeruginosa [2]; Citrate (0.129 M) +Ascorbic Acid (100 mM), MBI 26 10 MG/ML, 30 min", "result": 0}, {"measurement": "Survivors at Time (min.)", "setting": "P. aeruginosa [2]; Citrate (0.129 M) +Ascorbic Acid (100 mM), MBI 26 10 MG/ML, 60 min", "result": 0}, {"measurement": "Survivors at Time (min.)", "setting": "P. aeruginosa [2]; Citrate (0.129 M), MBI 26 10 MG/ML, 0 min", "result": "1.1 × 10^7"}, {"measurement": "Survivors at Time (min.)", "setting": "P. aeruginosa [2]; Citrate (0.129 M), MBI 26 10 MG/ML, 15 min", "result": 0}, {"measurement": "Survivors at Time (min.)", "setting": "P. aeruginosa [2]; Citrate (0.129 M), MBI 26 10 MG/ML, 30 min", "result": 0}, {"measurement": "Survivors at Time (min.)", "setting": "P. aeruginosa [2]; Citrate (0.129 M), MBI 26 10 MG/ML, 60 min", "result": 0}, {"measurement": "Survivors at Time (min.)", "setting": "P. aeruginosa [2]; Citrate-Dextrose, MBI 26 10 MG/ML, 0 min", "result": "9 × 10^6"}, {"measurement": "Survivors at Time (min.)", "setting": "P. aeruginosa [2]; Citrate-Dextrose, MBI 26 10 MG/ML, 15 min", "result": 20}, {"measurement": "Survivors at Time (min.)", "setting": "P. aeruginosa [2]; Citrate-Dextrose, MBI 26 10 MG/ML, 30 min", "result": 0}, {"measurement": "Survivors at Time (min.)", "setting": "P. aeruginosa [2]; Citrate-Dextrose, MBI 26 10 MG/ML, 60 min", "result": 0}, {"measurement": "Survivors at Time (min.)", "setting": "P. aeruginosa [2]; Citrate-Phosphate Dextrose, MBI 26 10 MG/ML, 0 min", "result": 0}, {"measurement": "Survivors at Time (min.)", "setting": "P. aeruginosa [2]; Citrate-Phosphate Dextrose, MBI 26 10 MG/ML, 30 min", "result": 0}, {"measurement": "Survivors at Time (min.)", "setting": "P. aeruginosa [2]; Citrate-Phosphate Dextrose, MBI 26 10 MG/ML, 60 min", "result": 0}, {"measurement": "Survivors at Time (min.)", "setting": "P. aeruginosa [2]; Dextran, MBI 26 (20 μg), 0 min", "result": "1.9 × 10^7"}, {"measurement": "Survivors at Time (min.)", "setting": "P. aeruginosa [2]; Dextran, MBI 26 (20 μg), 15 min", "result": "1.2 × 10^6"}, {"measurement": "Survivors at Time (min.)", "setting": "P. aeruginosa [2]; Dextran, MBI 26 (20 μg), 30 min", "result": "1 × 10^6"}, {"measurement": "Survivors at Time (min.)", "setting": "P. aeruginosa [2]; Dextran, MBI 26 (20 μg), 60 min", "result": "8.5 × 10^5"}, {"measurement": "MIC", "setting": "E. coli; E. coli (111:B4), CAMHB", "result": 8, "unit": "µg/mL"}, {"measurement": "MIC", "setting": "E. coli; E. coli (111:B4), CAMHB + Citrate (8 mM)", "result": 2, "unit": "µg/mL"}, {"measurement": "MIC", "setting": "E. coli; E. coli (Bort), CAMHB", "result": 16, "unit": "µg/mL"}, {"measurement": "MIC", "setting": "E. coli; E. coli (Bort), CAMHB + Citrate (8 mM)", "result": 8, "unit": "µg/mL"}, {"measurement": "MIC", "setting": "E. coli; E. coli (UB 1005), CAMHB", "result": 4, "unit": "µg/mL"}, {"measurement": "MIC", "setting": "E. coli; E. coli (UB 1005), CAMHB + Citrate (8 mM)", "result": 2, "unit": "µg/mL"}, {"measurement": "MIC", "setting": "S. typhimurium; CAMHB", "result": 8, "unit": "µg/mL"}, {"measurement": "MIC", "setting": "S. typhimurium; CAMHB + Citrate (8 mM)", "result": 2, "unit": "µg/mL"}, {"measurement": "MIC", "setting": "E. facaelis; CAMHB", "result": 16, "unit": "µg/mL"}, {"measurement": "MIC", "setting": "E. facaelis; CAMHB + Citrate (8 mM)", "result": ">32", "unit": "µg/mL"}, {"measurement": "MIC", "setting": "A. calcoacet.; A. calcoacet (C403), CAMHB", "result": 1, "unit": "µg/mL"}, {"measurement": "MIC", "setting": "A. calcoacet.; A. calcoacet (C403), CAMHB + Citrate (8 mM)", "result": 1, "unit": "µg/mL"}, {"measurement": "MIC", "setting": "A. calcoacet.; A. calcoacet. (C402), CAMHB", "result": 8, "unit": "µg/mL"}, {"measurement": "MIC", "setting": "A. calcoacet.; A. calcoacet. (C402), CAMHB + Citrate (8 mM)", "result": 4, "unit": "µg/mL"}, {"measurement": "MIC", "setting": "E. cloacae; E. cloacae (C601), CAMHB", "result": 8, "unit": "µg/mL"}, {"measurement": "MIC", "setting": "E. cloacae; E. cloacae (C601), CAMHB + Citrate (8 mM)", "result": 4, "unit": "µg/mL"}, {"measurement": "MIC", "setting": "E. cloacae; E. cloacae (C602), CAMHB", "result": 8, "unit": "µg/mL"}, {"measurement": "MIC", "setting": "E. cloacae; E. cloacae (C602), CAMHB + Citrate (8 mM)", "result": 4, "unit": "µg/mL"}, {"measurement": "MIC", "setting": "E. cloacae; E. cloacae (C603), CAMHB", "result": 4, "unit": "µg/mL"}, {"measurement": "MIC", "setting": "E. cloacae; E. cloacae (C603), CAMHB + Citrate (8 mM)", "result": 2, "unit": "µg/mL"}, {"measurement": "MIC", "setting": "P. aeruginosa [3]; CAMHB", "result": 16, "unit": "µg/mL"}, {"measurement": "MIC", "setting": "P. aeruginosa [3]; CAMHB + Citrate (8 mM)", "result": 2, "unit": "µg/mL"}, {"measurement": "non-toxic dose", "setting": "[4]", "result": "up to 30.6 mg/kg"}]}
